Measured values: patent US20130210907A1, “METHOD FOR PREVENTING OR TREATING ENTEROCHROMAFFIN CELL HYPERPLASIA-RELATED DISEASES BY QUERCETIN ADMINISTRATION” (HONG KONG BAPTIST UNIVERSITY, priority 2012, published 2013)

How the values were obtained:
QGP-1 cells = test: Cell cycle analysis by flow cytometry (propidium iodide); format: cell-based, human; conditions: 24 h
Protocol: QGP-1 cells are seeded at a density of 10×10^4 cells/ml and pre-incubated overnight. After incubation with or without Quercetin (0-100 μM) for 24 h, cells are harvested by trypsinization and fixed in 70% ethanol at 4° C. overnight. The cells are centrifuged to remove ethanol and washed twice using ice-cold PBS. The cell pallets are resuspended in 500 n1 propidium iodide solution (0.1% Triton X-100, 50 μg/ml propidium iodide in PBS) containing 50 μg/ml RNase and incubated at 37° C. for 30 min and protected from the light. The DNA content of 10,000 cells is detected by BD FASCanto Flow Cytometry and analyzed using […] software (Becton Dickinson, Heidelberg, Germany). The data are representative of those obtained in at least three experiments.

humans = conditions: 1000 mg/kg/day orally for several months; cited from earlier work
PI-IBS rats [1] = test: Colonic EC cell counting (silver staining); format: in vivo, rat; conditions: for EC cell density: PI-IBS rats, colon
Protocol: Six groups of 5 rats are tested. The groups setting and treatments are as described in Example 1. Different from Example 1, AWR test are not applied to the rats in this experiment in order to obtain the basal data without CRD stimulus. After the last drug administration, a 6 cm proximal colon (1-2 cm from caecum) is collected and divided into 3 parts, the proximal is fixed in 4% paraformaldehyde and embedded in paraffin for EC cell staining; the middle part is collected for 5-HT content measurement and electron microscopic evaluation, and the distal part is for western blotting analysis.
Tissue sections (5-μm thick) are deparaffinized and rehydrated for silver staining. Briefly, sections are incubated with 5% ammoniacal silver solution for 4 h at room temperature, then 2 h in 56° C. and subsequently 12 h at room temperature in a dark humidified chamber. After rinsing with water, 5% sodium hyposulfite is added and the tissue sections are incubated for 5 min at room temperature. The brown to black silver precipitate in the cytoplasm of EC cells represents as a positive reaction. A researcher blinded to treatment counted 5 random fields at 200× magnifications for each section, and the number of EC cells per mm^2 of mucosa is quantified using Image J NIH software.

PI-IBS rats [2] = test: Abdominal withdrawal reflex (AWR) test: pain threshold pressure to colorectal distension; format: in vivo, rat; conditions: for Pain threshold pressure, after treatment: 2 weeks
Protocol: Sprague-Dawley male rats (Laboratory Animal Services Centre, The Chinese University of Hong Kong) aged 6 weeks with body weight around 220 g are used to develop PI-IBS model. Briefly, rats are fasted for 24 h, and deeply anesthetized with chloral hydrate (350 mg.kg^−1, i.p.). After induction of colitis by 2,4,6-trinitrobenzenesulfonic acid solution (TNBS, 5 mg/0.8 ml/rat, in 50% ethanol, 8 cm from anus) administration, the rats are allowed to recover for at least 4 weeks before use. The control rats are similarly administered with 0.8 ml saline instead of TNBS. Only the rats that have completely recovered from the initial inflammation and acquired visceral hypersensitivity are used as the PI-IBS rats.
6 groups of 12 rats are tested. Normal rats (Group 1) are treated with water. PI-IBS rats are randomly divided into 5 groups and orally treated with water (Group 2), Doxantrazole (mast cell stabilizer, 30 mg/kg/d, Group 3), and Quercetin (Group 4-6) at the dose of 5, 10, and 20 mg/kg/d, respectively. After 2 weeks daily drug administration, 5 rats in each group are used to measure pain threshold pressure by abdominal withdrawal reflex (AWR) test, and the remaining […] is used for electromyography (EMG) recording.
AWR test is performed as previously described in Al-Chaer E D, Kawasaki M, Pasricha P J. A new model of chronic visceral hypersensitivity in adult rats induced by colon irritation during postnatal development. Gastroenterology. 2000 November; 119(5):1276-85. Briefly, rats are lightly anesthetized with ether; a latex balloon is inserted into the descending colon. Rats are then allowed to recover for about 1 h. The tube of the balloon is connected via a Y-connector to a sphygmomanometer and colorectal distension is applied in increments of 5 mmHg until a visible contraction of the abdominal wall is observed by an investigator blinded to the treatment. The pain threshold pressure is defined as the intensity of colorectal distension (CRD) that elicited an observable AWR, i.e. a sudden and persistent abdominal muscle contraction with abdomen lift off the platform. The pain threshold pressure of all groups is recorded and repeated five times with intervals of at least 5 minutes for recovery. EMG recording are conducted as previously described in Tammpere A, Brusberg M, Axenborg J, Hirsch I, Larsson H, Lindstrom E. Evaluation of pseudo-affective responses to noxious colorectal distension in rats by manometric recordings. Pain. 2005 August; 116(3):220-6 and Li Z, Zhang X J, Xu H X, Sung J J, Bian Z X. Intracolonical administration of protease-activated receptor-2 agonists produced visceral hyperalgesia by up-regulating serotonin in the colon of rats. Eur J. Pharmacol. 2009 Mar. 15; 606(1-3):199-204. Firstly, a surgical operation is made to implant the electrodes into the left external abdominal oblique muscles 7 days before EMG recording. After the last drug administration, a flexible latex balloon is inserted into the rat descending colon, and the rats are allowed to accommodate for 1 h. CRD is initiated, and the EMG signal is amplified and filtered by Power Lab System. Graded colorectal distension (20, 40, 60, and 80 mmHg; 20 s duration; 2 min inter-stimulus interval) is carried out for total three cycles to each rat. The changes of area under the curve (AUC) are calculated using that during 20 s distension period over the 20 s baseline.

## O=c1c(O)c(-c2ccc(O)c(O)c2)oc2cc(O)cc(O)c12 [Quercetin, 2-(3,4-dihydroxyphenyl)-3,5,7-trihydroxy-4H-chromen-4-one]
QGP-1 cells; QGP-1, 25 μM
  Cells in G0/G1 phase: 56.0 ± 3.5%
  Cells in G2/M phase: 21.8 ± 3.2%
  Cells in S phase: 22.3 ± 0.3%
QGP-1 cells; QGP-1, 50 μM
  Cells in G0/G1 phase: 47.8 ± 4.0 %
  Cells in G2/M phase: 20.2 ± 4.29%
  Cells in S phase: 32.0 ± 0.4 %
QGP-1 cells; QGP-1, 100 μM
  Cells in G0/G1 phase: 8.4 ± 1.7 %
  Cells in G2/M phase: 47.7 ± 2.2 %
  Cells in S phase: 43.9 ± 0.7 %
humans
  Toxicity on oral administration to humans: no toxicity
PI-IBS rats [1]; 5 mg/kg i.g.
  EC cell density: 89 ± 5 Number/mm^2
PI-IBS rats [1]; 10 mg/kg i.g.
  EC cell density: 72 ± 7 Number/mm^2
PI-IBS rats [1]; 20 mg/kg i.g.
  EC cell density: 105 ± 8 Number/mm^2
PI-IBS rats [1]; low dose (5 mg/kg)
  Decrease of EC cells number compared with the PI-IBS group: 18%
PI-IBS rats [1]; median dose (10 mg/kg)
  Decrease of EC cells number compared with the PI-IBS group: 42%
PI-IBS rats [2]; 5 mg/kg i.g. daily
  Pain threshold pressure, after treatment: 32 ± 1.9 mmHg
PI-IBS rats [2]; 5 mg/kg i.g. group
  Pain threshold pressure, before treatment: 25 ± 1.9 mmHg
PI-IBS rats [2]; 10 mg/kg i.g. daily
  Pain threshold pressure, after treatment: 33 ± 1.8 mmHg
PI-IBS rats [2]; 10 mg/kg i.g. group
  Pain threshold pressure, before treatment: 25 ± 1.1 mmHg
PI-IBS rats [2]; 20 mg/kg i.g. daily
  Pain threshold pressure, after treatment: 35 ± 1.3 mmHg
PI-IBS rats [2]; 20 mg/kg i.g. group
  Pain threshold pressure, before treatment: 24 ± 1.1 mmHg
